Results reported in PubChem BioAssay (NCI).
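Each compound was tested at five concentrations against cells in 96-well plates for 48 hours. TGI marks complete inhibition of growth.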

Tests used:
Assay in all cases: NCI anticancer screen, dose series, 48 h
786-0 renal = system: 786-0 renal
A549 NSCLC = system: A549 NSCLC
ACHN renal = system: ACHN renal
HCT-15 colon = system: HCT-15 colon
HL-60(TB) leukemia = system: HL-60(TB) leukemia
HT29 colon = system: HT29 colon
M14 melanoma = system: M14 melanoma
NCI-H23 lung = system: NCI-H23 lung
NCI-H460 lung = system: NCI-H460 lung
NCI-H522 lung = system: NCI-H522 lung
OVCAR-8 ovarian = system: OVCAR-8 ovarian
SK-MEL-2 melanoma = system: SK-MEL-2 melanoma
SK-MEL-28 melanoma = system: SK-MEL-28 melanoma
SK-OV-3 ovarian = system: SK-OV-3 ovarian
SN12C renal = system: SN12C renal
SW-620 colon = system: SW-620 colon
T-47D breast = system: T-47D breast

Row | SMILES | TGI (786-0 renal) | TGI (A549 NSCLC) | TGI (ACHN renal) | TGI (HCT-15 colon) | TGI (HL-60(TB) leukemia) | TGI (HT29 colon) | TGI (M14 melanoma) | TGI (NCI-H23 lung) | TGI (NCI-H460 lung) | TGI (NCI-H522 lung) | TGI (OVCAR-8 ovarian) | TGI (SK-MEL-2 melanoma) | TGI (SK-MEL-28 melanoma) | TGI (SK-OV-3 ovarian) | TGI (SN12C renal) | TGI (SW-620 colon) | TGI (T-47D breast)
1 | O=C(O)[C@H]1NC[C@@H]2ON=C(Br)[C@@H]21 | > 100 µM | > 100 µM | > 100 µM | > 100 µM | > 100 µM | > 100 µM | > 100 µM | > 100 µM | > 100 µM | > 100 µM | > 100 µM | > 100 µM | > 100 µM | > 100 µM | > 100 µM | > 100 µM | > 100 µM
2 | CS(=O)(=O)OC1CCN(C2(c3cccc(O)c3)CCCCC2)CC1 | 92.4 µM | > 100 µM | > 100 µM | > 100 µM | 38.2 µM | > 100 µM | > 100 µM | > 100 µM | > 100 µM | > 100 µM | > 100 µM | > 100 µM | > 100 µM | > 100 µM | > 100 µM | > 100 µM | > 100 µM
3 | CC1=NN(c2cccc(Cl)c2)C2(C1)SCC(=O)N2c1nc2ccccc2s1 (stereo not given) | 56.1 µM | > 100 µM | 79.9 µM | > 100 µM | 43.1 µM | 63.8 µM | 86.5 µM | 84.5 µM | 58.8 µM | 75.5 µM | > 100 µM | 49.2 µM | > 100 µM | 85.3 µM | 69.1 µM | > 100 µM | 84.4 µM
4 | COC(=O)Nc1nc2ccc(NS(=O)(=O)c3ccc(F)cc3)cc2[nH]1 | > 100 µM | > 100 µM | > 100 µM | > 100 µM | 8.45 µM | 37.4 µM | > 100 µM | > 100 µM | > 100 µM | 7.68 µM | > 100 µM | > 100 µM | > 100 µM | > 100 µM | > 100 µM | > 100 µM | > 100 µM
5 | Nc1ccc(S(=O)(=O)c2ccc(N=[N+]([O-])c3ccc(S(=O)(=O)c4ccc(N)cc4)cc3)cc2)cc1 | 60.3 µM | > 100 µM | > 100 µM | > 100 µM | > 100 µM | > 100 µM | > 100 µM | > 82.8 µM | > 100 µM | > 74 µM | > 100 µM | > 94.2 µM | > 100 µM | > 90.6 µM | > 100 µM | > 100 µM | > 100 µM
